In patent US11173177B2, “Compounds for treatment of lipoprotein metabolism disorders” (Aarhus Universitet, priority 2016, dated 2021):

Assays:
LDLR in HepG2 cells = assay: LDLR levels in HepG2 cells by Western blotting and densitometry; assay type: cell-based, human; conditions: 0-200 μg/ml, 24 h
Method: In the heparin mimetic class of modified polysaccharides compounds dextran sulfate (FIG. 9 A-B) and pentosan (FIG. 9 D-E) were tested in a HepG2 based in vitro cell assay. After overnight incubation LDLR levels were evaluated by Western blotting showing a concentration dependent increase of LDLR upon treatment with dextran sulfate (0-200 μg/ml) with up to 3-fold up regulation of LDLR.
Control cells were incubated without additives (negative control) or 500 μg/ml heparin (positive control). LDLR levels were calculated with respect to the level found in lysate of HepG2 cells incubated without additives.
HepG2 cells were incubated with 0-200 μg/ml of heterogeneously sulfated hexamer or 18-mer oligosaccharides containing on average 1,3 sulfates per disaccharide. After over night incubation cells were harvested and the cellular level of LDLR was analyzed by Western blotting (FIG. 17 A) and quantified by densitometry (FIG. 17 B).

PCSK9 [1] = assay: BIACORE interference assay, PCSK9 binding to heparin-albumin sensor chip; parameters: species or system human; conditions: 100 nM PCSK9 preincubated with 0 nM-10 μM compound; read-out: estimated IC50, inhibition of PCSK9 binding to heparin-albumin sensor chip
Method: BIACORE analysis using sensor chips coupled with either albumin (Sigma A4503) or heparin-albumin (Sigma H0403) were used to evaluate the interaction between PCSK9 and heparin. […] An interference assay using BIACORE analysis was implemented to assess the binding between compound (X) and PCSK9. Solutions of 100 nM PCSK9 was incubated with increasing concentrations of compound (X) (0 nM, 10 nM, 100 nM, 1 μM and 10 μM), the solutions were then infused over the sensor chip coupled with heparin-albumin.

PCSK9 [2] = assay: Heparin-sepharose binding assay (free PCSK9 by ELISA); parameters: species or system human; conditions: 500-200 μg/ml, PCSK9 1 μg/ml, over night 4° C.
Method: Compound (X) inhibition of PCSK9 binding to Heparin/Heparan sulfate was tested in a Heparin-sepharose binding assay. Heparin-sepharose beads (2 μl) were incubated with PCSK9 (1 μg/ml) with increasing concentrations of compound (X) (0-500 μg/ml) in a total volume of 150 μl 10 mM NaH2PO4. After over night rotation at 4° C., beads were pelleted and the concentration of non-precipitated PCSK9 (free PCSK9) in supernatant was evaluated by ELISA. The concentration of free PCSK9 in each sample was normalised to the PCSK9 level in a sample without Heparin-sepharose beads (input control). As positive control was included a sample with soluble heparin (5 mg/ml) (FIG. 16 A).
Sucrose octasulfate (FIG. 21A) inhibition of PCSK9 binding to Heparin/Heparan sulfate was tested in a Heparin-sepharose binding assay. Heparin-sepharose beads (2 μl) were incubated with PCSK9 (1 μg/ml) and increasing concentrations of sucrose octasulfate (0-500 μg/ml) in a total volume of 150 μl 10 mM NaH2PO4. After over night rotation at 4° C., beads were pelleted and the concentration of non-precipitated PCSK9 (free PCSK9) in supernatant was evaluated by ELISA). Percent free PCSK9 was calculated with respect to the PCSK9 concentration in a sample without Heparin-sepharose beads (input control) (FIG. 21B).

liver LDLR = assay: Liver LDLR levels in mice after intravenous PCSK9 injection (Western blot); assay type: in vivo; conditions: inhibitor i.v. 60 min prior PCSK9 (10 μg); compound (X) 0.13 mg/kg, Evolocumab 8 mg/kg; PCSK9 without inhibitor: 50% decrease
Method: To test the effect of enzymatic removal of heparan sulfate GAGs on PCSK9 activity in vivo 10-12 week-old male BALB6/cJRj mice were infused with heparinase I (30 U) administered through a tail vein catheter 5 min prior injection of PCSK9 (10 μg). In control mice the heparinase injection and/or the PCSK9 injection were replaced with an injection of 0.9% saline. During heparinase infusion, mice were lightly anaesthetized with isoflurane continuously administered through a mask.
Mice (BALB6/cJRj) were subjected to a single intravenous administration (tail vein) of 10 μg human recombinant PCSK9 alone or in combination with heparin (50 U). One hour post injection mice were sacrificed and liver tissues were collected.
Mice (BALB6/cJRj) were subjected to a single intravenous (tail vein) administration of 3.2 μg compound (X) 60 minutes prior injection with PCSK9 (10 μg). PCSK9 induced degradation of liver LDLR was assessed 60 min post PCSK9 injection by Western blotting and quantified by densitometry (FIG. 16 C). Control mice were injected with NaCl or control inhibitor Evolocumab (200 μg), commercially available PCSK9 inhibitory monoclonal antibody (Amgen). LDLR levels were calculated with respect to LDLR level in mice injected with NaCl alone.

SMILES: CC(C)CCC[C@@H](C)[C@H]1CC[C@H]2[C@@H]3CC[C@H]4C[C@@H](O[C@@H]5O[C@H](COS(=O)(=O)[O-])[C@@H](O[C@H]6O[C@H](COS(=O)(=O)[O-])[C@@H](O[C@H]7O[C@H](COS(=O)(=O)[O-])[C@@H](O[C@H]8O[C@H](COS(=O)(=O)[O-])[C@@H](OS(=O)(=O)[O-])[C@H](OS(=O)(=O)[O-])[C@H]8OS(=O)(=O)[O-])[C@H](OS(=O)(=O)[O-])[C@H]7OS(=O)(=O)[O-])[C@H](OS(=O)(=O)[O-])[C@H]6OS(=O)(=O)[O-])[C@H](OS(=O)(=O)[O-])[C@H]5OS(=O)(=O)[O-])CC[C@]4(C)[C@H]3CC[C@]12C.[Na+].[Na+].[Na+].[Na+].[Na+].[Na+].[Na+].[Na+].[Na+].[Na+].[Na+].[Na+].[Na+] [compound (X), 3β-cholestanyl 2,3,4,6-tetra-O-sulfo-α-D-glucopyranosyl-(1→4)-2,3,6-tri-O-sulfo-α-D-glucopyranosyl-(1→4)-2,3,6-tri-O-sulfo-α-Dglucopyranosyl-(1→4)-2,3,6-tri-O-sulfo-β-D-glucopyranoside tridecasodium salt]
- LDLR levels with respect to cells incubated without additives (LDLR in HepG2 cells): up to 12 times
- LDLR levels, concentration dependence (LDLR in HepG2 cells): concentration dependent increased levels of LDLR
- IC50 (PCSK9 [1]): ~50 nM
- inhibition of PCSK9 interaction with Heparin-sepharose (PCSK9 [2]): completely inhibited
- decrease of liver LDLR level after PCSK9 injection (liver LDLR): no decrease was observed
